# Results from patent US10744150B2, “Cyclic dinucleotides as anticancer agents” (BRISTOL-MYERS SQUIBB COMPANY, priority 2017, dated 2020).
# Like-named read-outs stand apart in the source and are kept apart here.
# Experiments:
# [1] = biological target: T1, STING AQ: His-TVMV-S-hSTING(155-341)-G230A-R293Q (Homo sapiens, UniProt Q86WV6, G230A/H232R/R293Q); assay: STING HTRF binding assay (time resolved FRET competition), STING AQ; settings: 20 nM His-tagged STING cytoplasmic domain, 40 nM fluorescein-labeled cGAMP analog probe, one hour; read-out: HTRF Binding Assays IC50 STING AQ
# T1 construct: His-TVMV-S-hSTING(155-341)-G230A-R293Q
# T1 sequence (Q86WV6 with tags, fused parts or gaps G230A/H232R/R293Q): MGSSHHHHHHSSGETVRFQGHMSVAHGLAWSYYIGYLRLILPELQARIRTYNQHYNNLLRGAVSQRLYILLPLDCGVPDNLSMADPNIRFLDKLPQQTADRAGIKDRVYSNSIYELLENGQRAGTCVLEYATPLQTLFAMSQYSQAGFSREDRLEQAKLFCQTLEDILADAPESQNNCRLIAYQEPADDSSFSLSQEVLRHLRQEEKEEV
# Experimental: (§1) A time resolved FRET-based competition binding assay was used to assess test article binding to STING WT and STING AQ. His-tagged STING cytoplasmic domain (WT or AQ) at a concentration of 20 nM was incubated with 2.5 nM Tb-labeled anti-His antibody, test compound, and fluorescein-labeled cGAMP analog probe (BioLog cat. no. C195) at a concentration of 200 nM (STING WT) or 40 nM (STING AQ) in PBS containing 0.005% Tween-20 and 0.1% BSA for one hour. Fluorescence at 495 nm and 520 nm was measured using an EnVision microplate reader to quantify FRET between Tb-labeled anti-His antibody and fluorescein-labeled probe. Background was defined as the signal obtained in the absence of STING protein, and background subtracted FRET ratios were normalized to the maximum signal obtained in the absence of test compound. These values were converted to a percent inhibition. Percent inhibition was determined for test compounds at 11 concentrations. The IC50, defined as the concentration of competing test compound needed to reduce specific binding of the probe by 50%, was calculated using the 4 parameter logistic equation to fit the data
# [2] = system: IRF3; assay: STING THP1 reporter assay, IRF pathway (secreted luciferase Lucia, QUANTI-Luc); format: cell-based; settings: THP1-Dual cells, 10% human plasma, 100% activation = 100 μM cGAMP, luciferase readout, read-out: THP1 Reporter Assays EC50 IRF3
# Description: (§2) THP1-Dual™ cells were derived from the human THP-1 monocyte cell line by stable integration of two inducible reporter constructs. To this end, THP1-Dual™ cells allow the simultaneous study of the NF-κB pathway, by monitoring the activity of SEAP, and the IRF pathway by assessing the activity of a secreted luciferase (Lucia). Both reporter proteins are readily measurable in the cell culture supernatant when using QUANTI-Blue™, a SEAP detection reagent, and QUANTI-Luc™, a luciferase detection reagent.
# (§3) THP1-Dual™ cells induce the activation of NF-κB in response to STING agonists. They also trigger the IRF pathway upon stimulation with STING agonists, such as cGAMP. Here, the THP-1-Dual cells were used to assess STING binders for function on the cellular level.
# (§4) Serial dilutions of compounds in DMSO were added to low volume 384 well plates at 100 nl/well using an ECHO acoustic dispenser (Labcyte, model 550) to achieve final starting concentration of 100 μM in cell suspension. THP-1 Dual™ STING reporter cells (Invivogen, Dual cells cat # THPD-nfis) were added to the plates with compounds at 15,000 cells in 10 μL per well in RPMI media (Gibco, cat #11875) containing 10% human plasma in a low volume 384-well black wall clear bottom tissue culture plate (Corning, cat #3542) for SEAP assay and low volume solid white plate (Corning, cat #3826) for luciferase assay. One column of the plate was reserved for treatment with cGAMP at 100 μM for 100% activation calculation and one column for no treatment (DMSO only) for baseline activation. Plates were then incubated in 37° C. incubator at 5% CO2 for 20 hours.
# (§5) In the SEAP assay, 5 μl of 2× QuantiBlue (Invivogen, cat # Rep-qb2) is added to 384 well black plates seeded with THP1 cells and incubated at 37° C. for 2 hours. Plates were read on the Envision (Perkin Elmer) at 620 nm wavelength (OD620). In the luciferase assay, 5 μl of Quantiluc (Invivogen, Rep-qlc2) is added to white 384 well plates seeded with THP1 cells and read at 5 minutes on the Envision (Perkin Elmer) using a luminescence protocol (RLU). For both cell lines, 100% activation was determined by value (RLU) of THP-1 Dual STING cells stimulated with 100 μM cGAMP (Invivogen, cat # TLRL-NACGA23-5).
# [3] = system: NFkB; assay: STING THP1 reporter assay, NF-κB pathway (SEAP, QUANTI-Blue); format: cell-based; settings: THP1-Dual cells, 10% human plasma, 100% activation = 100 μM cGAMP
# Description: as §2, §3, §4, §5
# [4] = biological target: T2, STING WT: His-TVMV-S-hSTING(155-341)-H232R (Homo sapiens, UniProt Q86WV6, H232R); assay: STING HTRF binding assay (time resolved FRET competition), STING WT; settings: 20 nM His-tagged STING cytoplasmic domain, 200 nM fluorescein-labeled cGAMP analog probe, one hour; read-out: HTRF Binding Assays IC50 STING WT
# T2 construct: His-TVMV-S-hSTING(155-341)-H232R
# T2 sequence (Q86WV6 with tags, fused parts or gaps H232R): as the sequence (Q86WV6 with tags, fused parts or gaps G230A/H232R/R293Q) above, with A99G, Q162R counted along it
# Experimental: as §1
# [5] = Homo sapiens, THP-1, 20 h, SEAP readout OD620, read-out: THP1 Reporter Assays EC50 NFkB
# [6] = 20 hours, SEAP readout OD620, read-out: THP1 Reporter Assays EC50 NFkB
Compound,IC50 [1] [µM],"EC50 ([2]; Homo sapiens, THP-1, 20 h) [µM]","EC50 [3, 5] [µM]",IC50 [4] [µM],EC50 ([2]; 20 hours) [µM],"EC50 [3, 6] [µM]"
"Nc1ncnc2c1ncn2[C@@H]1C[C@@H]2COP(O)(=S)O[C@@H]3[C@H](O)[C@@H](COP(O)(=S)OC[C@H]21)O[C@H]3n1cnc2c(O)nc3nccn3c21 (single isomer, unassigned) [Example 15-1]",4.4,> 100,> 100,33.5,,
"NC(=O)c1cccc2c1nnn2[C@@H]1O[C@@H]2COP(O)(=S)OC[C@@H]3[C@@H](COP(O)(=S)O[C@@H]1[C@@H]2F)C[C@H]3n1cnc2c(N)ncnc21 (single isomer, unassigned) [Example 11-1]",3.1,> 100,> 100,20.5,,
"Nc1ncnc2c1ncn2[C@@H]1O[C@@H]2COP(O)(=S)OC[C@@H]3[C@@H](COP(O)(=S)O[C@H]2[C@H]1F)C[C@H]3n1cnc2c(=O)[nH]cnc21 (single isomer, unassigned) [Example 5-4]",0.01,,,0.12,12,91
"NC(=O)c1cccc2c1nnn2[C@@H]1O[C@@H]2COP(O)(=S)OC[C@@H]3[C@@H](COP(O)(=S)O[C@@H]1[C@@H]2F)C[C@H]3n1cnc2c(N)ncnc21 (single isomer, unassigned) [Example 11-2]",1.4,,,19.4,> 100,> 100
"Nc1ncnc2c1ncn2[C@@H]1O[C@@H]2COP(O)(=S)OC[C@@H]3[C@@H](COP(O)(=S)O[C@H]2[C@H]1F)C[C@H]3n1cnc2c(O)nc3nccn3c21 (single isomer, unassigned) [Example 3-1]",0.43,,,15,> 100,> 100
"NC(=O)c1cccc2c1nnn2[C@@H]1O[C@@H]2COP(O)(=S)OC[C@@H]3[C@@H](COP(O)(=S)O[C@H]2[C@H]1F)C[C@H]3n1cnc2c(N)ncnc21 (single isomer, unassigned) [Example 12-1]",19.9,> 100,> 100,52.8,,
"Nc1ncnc2c1ncn2[C@@H]1C[C@@H]2COP(O)(=S)O[C@H]3[C@H](F)[C@H](n4ccc5c(Cl)ncnc54)O[C@@H]3COP(O)(=S)OC[C@H]21 (single isomer, unassigned) [Example 7-1]",32.7,> 100,> 100,> 100,,
"NC(=O)c1cccc2c1nnn2[C@@H]1O[C@@H]2COP(O)(=S)OC[C@@H]3[C@@H](COP(O)(=S)O[C@H]2[C@H]1F)C[C@H]3n1cnc2c(N)ncnc21 (single isomer, unassigned) [Example 12-3]",64.4,,,> 100,> 100,> 100
"Nc1ncnc2c1ncn2[C@@H]1C[C@@H]2COP(O)(=S)O[C@H]3[C@H](F)[C@H](n4ccc5c(Cl)ncnc54)O[C@@H]3COP(O)(=S)OC[C@H]21 (single isomer, unassigned) [Example 7-3]",61.1,,,> 100,> 100,> 100
"O=c1[nH]c2nccn2c2c1ncn2[C@@H]1O[C@@H]2COP(=O)(S)OC[C@@H]3[C@@H](COP(=O)(S)O[C@@H]1[C@@H]2O)C[C@H]3n1cnc2c(O)ncnc21 (single isomer, unassigned) [Example 14-3]",1.7,,,14.3,> 100,> 100
"Nc1ncnc2c1ncn2[C@@H]1C[C@@H]2COP(O)(=S)O[C@H]3[C@H](F)[C@H](n4cnc5c(N)ncnc54)O[C@@H]3COP(O)(=S)OC[C@H]21 (single isomer, unassigned) [Example 17-2]",1.9,,,> 100,> 100,> 100
"Nc1ncnc2c1ccn2[C@@H]1O[C@@H]2COP(O)(=S)OC[C@@H]3[C@@H](COP(O)(=S)O[C@H]2[C@@H]1F)C[C@H]3n1cnc2c(N)ncnc21 (single isomer, unassigned) [Example 8-3]",> 100,,,> 100,> 100,> 100
"Nc1nc2c(ncn2[C@@H]2C[C@@H]3COP(O)(=S)O[C@H]4[C@@H](F)[C@H](n5cnc6c(N)ncnc65)O[C@@H]4COP(O)(=S)OC[C@H]32)c(=O)[nH]1 (single isomer, unassigned) [Example 18-2]",0.02,,,0.15,> 100,> 100
"NC(=O)c1cccc2c1nnn2[C@@H]1O[C@@H]2COP(O)(=S)OC[C@@H]3[C@@H](COP(O)(=S)O[C@H]2[C@H]1F)C[C@H]3n1cnc2c(N)ncnc21 (single isomer, unassigned) [Example 12-4]",0.4,,,22,> 100,> 100
"O=c1[nH]c2nccn2c2c1ncn2[C@@H]1O[C@@H]2COP(=O)(S)OC[C@@H]3[C@@H](COP(=O)(S)O[C@@H]1[C@@H]2O)C[C@H]3n1cnc2c(O)ncnc21 (single isomer, unassigned) [Example 14-2]",5.1,,,25.5,> 100,> 100
"Nc1ncnc2c1ncn2[C@@H]1O[C@@H]2COP(O)(=S)OC[C@@H]3[C@@H](COP(O)(=S)O[C@H]2[C@H]1F)C[C@H]3n1cnc2c(=O)[nH]cnc21 (single isomer, unassigned) [Example 5-3]",0.04,,,2.7,> 100,> 100
"NC(=O)c1cccc2c1nnn2[C@@H]1O[C@@H]2COP(O)(=S)OC[C@@H]3[C@@H](COP(O)(=S)O[C@H]2[C@H]1F)C[C@H]3n1cnc2c(N)ncnc21 (single isomer, unassigned) [Example 12-2]",88.7,,,> 100,> 100,> 100
"Nc1ncnc2c1ncn2[C@@H]1C[C@@H]2COP(O)(=S)O[C@H]3[C@@H](F)[C@H](n4cnc5c(=O)[nH]c6nccn6c54)O[C@@H]3COP(O)(=S)OC[C@H]21 (single isomer, unassigned) [Example 9-3]",0.35,,,9.1,> 100,> 100
"Nc1ncnc2c1ncn2[C@@H]1C[C@@H]2COP(O)(=S)O[C@H]3[C@H](F)[C@H](n4ccc5c(Cl)ncnc54)O[C@@H]3COP(O)(=S)OC[C@H]21 (single isomer, unassigned) [Example 7-4]",6.3,,,49.1,> 100,> 100
"Nc1ncnc2c1ncn2[C@@H]1C[C@@H]2COP(O)(=S)O[C@H]3[C@@H](F)[C@H](n4cnc5c(=O)[nH]c6nccn6c54)O[C@@H]3COP(O)(=S)OC[C@H]21 (single isomer, unassigned) [Example 9-2]",0.92,,,4.3,> 100,> 100
